# Data taken from ChEMBL document CHEMBL3885881, “DrugMatrix”.
# Species on record: Rattus norvegicus
# Assay: DrugMatrix - Regimen: Daily Repeat
# Assay type: toxicity, organism-based, Sprague-Dawley
# Parameters: regimen Daily Repeat, gender Male, age 6-8 weeks
# Conditions: in vivo, po, route oral GAVAGE, vehicle .5 % CMC; for ABSOLUTE BASOPHIL / ABSOLUTE EOSINOPHIL / ABSOLUTE LYMPHOCYTE / ABSOLUTE MONOCYTE / ABSOLUTE SEGMENTED NEUTROPHIL / BASOPHIL / EOSINOPHIL / ERYTHROCYTE COUNT / HEMATOCRIT / HEMOGLOBIN / LEUKOCYTE COUNT / LYMPHOCYTE / MEAN CORPUSCULAR HEMOGLOBIN / MEAN CORPUSCULAR HEMOGLOBIN CONCENTRATION / MEAN CORPUSCULAR VOLUME / MONOCYTE / NEUTROPHIL / NUCLEATED RED BLOOD CELLS / PLATELET COUNT: tissue Blood; for ALANINE AMINOTRANSFERASE / ALBUMIN / ALKALINE PHOSPHATASE / ASPARTATE AMINOTRANSFERASE / BLOOD UREA NITROGEN / CARBON DIOXIDE / CHLORIDE / CHOLESTEROL / CREATINE PHOSPHOKINASE / CREATININE / GLUCOSE / LACTATE DEHYDROGENASE / LIPASE / PHOSPHORUS / POTASSIUM / SODIUM / TOTAL BILIRUBIN / TOTAL PROTEIN / URIC ACID: tissue Plasma
# [1] = 25 mg/kg, 72 h, dose level Low, time 3 day
# [2] = 25 mg/kg, 120 h, dose level Low, time 5 day
# [3] = 300 mg/kg, 72 h, dose level High, time 3 day
# [4] = 300 mg/kg, 120 h, dose level High, time 5 day
structure (smiles),measurement,setting,value
CC(=O)S[C@@H]1CC2=CC(=O)CC[C@]2(C)[C@H]2CC[C@@]3(C)[C@@H](CC[C@@]34CCC(=O)O4)[C@H]12 [SPIRONOLACTONE],ABSOLUTE BASOPHIL,[1],0 CELLS/uL
same,ABSOLUTE EOSINOPHIL,[1],0 CELLS/uL
same,ABSOLUTE LYMPHOCYTE,[1],11038 CELLS/uL
same,ABSOLUTE MONOCYTE,[1],168 CELLS/uL
same,ABSOLUTE SEGMENTED NEUTROPHIL,[1],694 CELLS/uL
same,BASOPHIL,[1],0%
same,EOSINOPHIL,[1],0%
same,ERYTHROCYTE COUNT,[1],5.44 x10E6/uL
same,HEMATOCRIT,[1],34.63%
same,HEMOGLOBIN,[1],13.87 G/DL
same,LEUKOCYTE COUNT,[1],11.9 x10E3/uL
same,LYMPHOCYTE,[1],92.67%
same,MEAN CORPUSCULAR HEMOGLOBIN,[1],25.53 pg
same,MEAN CORPUSCULAR HEMOGLOBIN CONCENTRATION,[1],40.03 G/DL
same,MEAN CORPUSCULAR VOLUME,[1],63.7 fL
same,MONOCYTE,[1],1.33%
same,NEUTROPHIL,[1],6%
same,NUCLEATED RED BLOOD CELLS,[1],0.67 /100WBC
same,PLATELET COUNT,[1],1277 x10E3/uL
same,ALANINE AMINOTRANSFERASE,[1],45.67 u/L
same,ALBUMIN,[1],4.3 G/DL
same,ALKALINE PHOSPHATASE,[1],295 u/L
same,ASPARTATE AMINOTRANSFERASE,[1],77.33 u/L
same,BLOOD UREA NITROGEN,[1],15.33 mg/dL
same,CARBON DIOXIDE,[1],28 mmol/L
same,CHLORIDE,[1],101.33 MEQ/L
same,CHOLESTEROL,[1],76.33 mg/dL
same,CREATINE PHOSPHOKINASE,[1],188.33 u/L
same,CREATININE,[1],0.21 mg/dL
same,GLUCOSE,[1],169.33 mg/dL
same,LACTATE DEHYDROGENASE,[1],202.67 u/L
same,LIPASE,[1],9.67 u/L
same,PHOSPHORUS,[1],12.5 mg/dL
same,POTASSIUM,[1],6.74 MEQ/L
same,SODIUM,[1],146.03 MEQ/L
same,TOTAL BILIRUBIN,[1],0.2 mg/dL
same,TOTAL PROTEIN,[1],5.83 G/DL
same,URIC ACID,[1],1.8 mg/dL
same,ABSOLUTE BASOPHIL,[2],0 CELLS/uL
same,ABSOLUTE EOSINOPHIL,[2],0 CELLS/uL
same,ABSOLUTE LYMPHOCYTE,[2],13033 CELLS/uL
same,ABSOLUTE MONOCYTE,[2],85.33 CELLS/uL
same,ABSOLUTE SEGMENTED NEUTROPHIL,[2],1115 CELLS/uL
same,BASOPHIL,[2],0%
same,EOSINOPHIL,[2],0%
same,ERYTHROCYTE COUNT,[2],5.6 x10E6/uL
same,HEMATOCRIT,[2],34.4%
same,HEMOGLOBIN,[2],13.67 G/DL
same,LEUKOCYTE COUNT,[2],14.23 x10E3/uL
same,LYMPHOCYTE,[2],91.33%
same,MEAN CORPUSCULAR HEMOGLOBIN,[2],24.47 pg
same,MEAN CORPUSCULAR HEMOGLOBIN CONCENTRATION,[2],39.73 G/DL
same,MEAN CORPUSCULAR VOLUME,[2],61.5 fL
same,MONOCYTE,[2],0.67%
same,NEUTROPHIL,[2],8%
same,NUCLEATED RED BLOOD CELLS,[2],0 /100WBC
same,PLATELET COUNT,[2],1372 x10E3/uL
same,ALANINE AMINOTRANSFERASE,[2],48.67 u/L
same,ALBUMIN,[2],4.3 G/DL
same,ALKALINE PHOSPHATASE,[2],354.67 u/L
same,ASPARTATE AMINOTRANSFERASE,[2],81 u/L
same,BLOOD UREA NITROGEN,[2],19 mg/dL
same,CARBON DIOXIDE,[2],25.67 mmol/L
same,CHLORIDE,[2],103.33 MEQ/L
same,CHOLESTEROL,[2],60.33 mg/dL
same,CREATINE PHOSPHOKINASE,[2],259.33 u/L
same,CREATININE,[2],0.2 mg/dL
same,GLUCOSE,[2],164.33 mg/dL
same,LACTATE DEHYDROGENASE,[2],139 u/L
same,LIPASE,[2],9.67 u/L
same,PHOSPHORUS,[2],12.23 mg/dL
same,POTASSIUM,[2],6.24 MEQ/L
same,SODIUM,[2],148.03 MEQ/L
same,TOTAL BILIRUBIN,[2],0.23 mg/dL
same,TOTAL PROTEIN,[2],6.27 G/DL
same,URIC ACID,[2],1.93 mg/dL
same,ABSOLUTE BASOPHIL,[3],0 CELLS/uL
same,ABSOLUTE EOSINOPHIL,[3],0 CELLS/uL
same,ABSOLUTE LYMPHOCYTE,[3],10747 CELLS/uL
same,ABSOLUTE MONOCYTE,[3],38 CELLS/uL
same,ABSOLUTE SEGMENTED NEUTROPHIL,[3],481.67 CELLS/uL
same,BASOPHIL,[3],0%
same,EOSINOPHIL,[3],0%
same,ERYTHROCYTE COUNT,[3],5.83 x10E6/uL
same,HEMATOCRIT,[3],37.33%
same,HEMOGLOBIN,[3],14.97 G/DL
same,LEUKOCYTE COUNT,[3],11.27 x10E3/uL
same,LYMPHOCYTE,[3],95.33%
same,MEAN CORPUSCULAR HEMOGLOBIN,[3],25.67 pg
same,MEAN CORPUSCULAR HEMOGLOBIN CONCENTRATION,[3],40.07 G/DL
same,MEAN CORPUSCULAR VOLUME,[3],64.03 fL
same,MONOCYTE,[3],0.33%
same,NEUTROPHIL,[3],4.33%
same,NUCLEATED RED BLOOD CELLS,[3],0 /100WBC
same,PLATELET COUNT,[3],1193 x10E3/uL
same,ALANINE AMINOTRANSFERASE,[3],95 u/L
same,ALBUMIN,[3],4.27 G/DL
same,ALKALINE PHOSPHATASE,[3],425.67 u/L
same,ASPARTATE AMINOTRANSFERASE,[3],757 u/L
same,BLOOD UREA NITROGEN,[3],16.67 mg/dL
same,CARBON DIOXIDE,[3],22.67 mmol/L
same,CHLORIDE,[3],101.33 MEQ/L
same,CHOLESTEROL,[3],65.67 mg/dL
same,CREATINE PHOSPHOKINASE,[3],5158.67 u/L
same,CREATININE,[3],0.2 mg/dL
same,GLUCOSE,[3],152.67 mg/dL
same,LACTATE DEHYDROGENASE,[3],2756 u/L
same,LIPASE,[3],11 u/L
same,PHOSPHORUS,[3],12.67 mg/dL
same,POTASSIUM,[3],9.65 MEQ/L
same,SODIUM,[3],142.53 MEQ/L
same,TOTAL BILIRUBIN,[3],0.3 mg/dL
same,TOTAL PROTEIN,[3],6.07 G/DL
same,URIC ACID,[3],3.73 mg/dL
same,ABSOLUTE BASOPHIL,[4],0 CELLS/uL
same,ABSOLUTE EOSINOPHIL,[4],55.67 CELLS/uL
same,ABSOLUTE LYMPHOCYTE,[4],15788 CELLS/uL
same,ABSOLUTE MONOCYTE,[4],55.67 CELLS/uL
same,ABSOLUTE SEGMENTED NEUTROPHIL,[4],1134 CELLS/uL
same,BASOPHIL,[4],0%
same,EOSINOPHIL,[4],0.33%
same,ERYTHROCYTE COUNT,[4],5.9 x10E6/uL
same,HEMATOCRIT,[4],35.17%
same,HEMOGLOBIN,[4],14.23 G/DL
same,LEUKOCYTE COUNT,[4],17.03 x10E3/uL
same,LYMPHOCYTE,[4],92.67%
same,MEAN CORPUSCULAR HEMOGLOBIN,[4],24.17 pg
same,MEAN CORPUSCULAR HEMOGLOBIN CONCENTRATION,[4],40.47 G/DL
same,MEAN CORPUSCULAR VOLUME,[4],59.6 fL
same,MONOCYTE,[4],0.33%
same,NEUTROPHIL,[4],6.67%
same,NUCLEATED RED BLOOD CELLS,[4],0 /100WBC
same,PLATELET COUNT,[4],1586.67 x10E3/uL
same,ALANINE AMINOTRANSFERASE,[4],70.33 u/L
same,ALBUMIN,[4],4.23 G/DL
same,ALKALINE PHOSPHATASE,[4],327.33 u/L
same,ASPARTATE AMINOTRANSFERASE,[4],72.33 u/L
same,BLOOD UREA NITROGEN,[4],17.33 mg/dL
same,CARBON DIOXIDE,[4],27.33 mmol/L
same,CHLORIDE,[4],101.33 MEQ/L
same,CHOLESTEROL,[4],60.67 mg/dL
same,CREATINE PHOSPHOKINASE,[4],189.67 u/L
same,CREATININE,[4],0.21 mg/dL
same,GLUCOSE,[4],158.33 mg/dL
same,LACTATE DEHYDROGENASE,[4],134.33 u/L
same,LIPASE,[4],10.33 u/L
same,PHOSPHORUS,[4],11.07 mg/dL
same,POTASSIUM,[4],6.24 MEQ/L
same,SODIUM,[4],145.57 MEQ/L
same,TOTAL BILIRUBIN,[4],0.2 mg/dL
same,TOTAL PROTEIN,[4],6.17 G/DL
same,URIC ACID,[4],2 mg/dL
